Data published in patent US8440724B2, “Inhibiting neurotransmitter reuptake” (Mayo Foundation for Medical Education and Research, priority 2008, dated 2013).
Like-named read-outs stand apart in the source and are kept apart here.

Assays:
[1] = molecular target: T1, human serotonin transporter (hSERT) (Homo sapiens, UniProt P31645); test: Radioligand binding to cloned hSERT, [3H]citalopram, HEK-293 cell membranes
T1 construct: expressed in transfected cells; host or cells: HEK-293, stably transfected
T1 sequence (P31645 whole entry): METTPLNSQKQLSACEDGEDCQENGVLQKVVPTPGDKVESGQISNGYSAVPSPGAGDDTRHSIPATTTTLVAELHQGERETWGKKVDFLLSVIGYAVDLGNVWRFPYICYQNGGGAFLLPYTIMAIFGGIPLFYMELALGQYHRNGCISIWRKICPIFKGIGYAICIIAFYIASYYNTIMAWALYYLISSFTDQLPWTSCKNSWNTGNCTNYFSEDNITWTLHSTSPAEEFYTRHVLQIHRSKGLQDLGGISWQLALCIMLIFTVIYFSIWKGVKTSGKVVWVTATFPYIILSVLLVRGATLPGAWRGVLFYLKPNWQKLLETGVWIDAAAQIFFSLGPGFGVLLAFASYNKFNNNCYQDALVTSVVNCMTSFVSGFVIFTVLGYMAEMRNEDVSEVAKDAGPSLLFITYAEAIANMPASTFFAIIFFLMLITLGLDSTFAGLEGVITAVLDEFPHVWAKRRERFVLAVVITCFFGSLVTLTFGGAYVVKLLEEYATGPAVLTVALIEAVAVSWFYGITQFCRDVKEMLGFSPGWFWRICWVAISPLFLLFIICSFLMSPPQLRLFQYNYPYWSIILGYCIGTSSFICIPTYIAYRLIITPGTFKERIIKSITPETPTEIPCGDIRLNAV
Procedure: (§1) HEK-293 cells expressing the recombinant hSERT or hDAT were incubated with Dulbecco's modified Eagles medium (MEM) supplemented with 0.1 mM nonessential amino acid solution for MEM, 5% v/v fetal bovine serum and 1 U/mL penicillin/streptomycin solution. Cells expressing the hNET transporter were incubated with Dulbecco's modified Eagles medium supplemented with 10% v/v fetal bovine serum and 100 U/mL penicillin/streptomycin solution and 2 mM L-glutamine. The cells were grown until 70-80% confluent on 175 cm^2 flasks in a humidified 10% CO2/90% air environment at 37° C., with the selecting antibiotic Geneticin sulfate at 250 μg/mL. The cells were incubated in 10% CO2, 90% air at 37° C. and 100% humidity.
(§2) Cell membranes containing hSERT, hNET, or hDAT were prepared from the cell lines to assay ligand binding for each of the transporters. […] The washed cells were incubated for 5 minutes at 37° C. in 10 mL solution 1 containing 100 mM ethylene glycol-bis N,N,N′,N′-tetraacetic acid (EGTA). The cells were then scraped from the flask surface with a rubber spatula, placed into a centrifuge tube, and collected by centrifugation at 1000×g for 5 minutes at 4° C. The resulting supernatant was discarded, and the cell pellet was resuspended in 0.5 to1.0 mL of the appropriate binding buffer (described below). The resuspended cell pellet was homogenized using a Polytron for 10 seconds at setting 6. The resulting homogenate was centrifuged at about 36,000×g for 10 minutes at 4° C. The supernatant was discarded, and the pellet was resuspended in the same volume of the appropriate binding buffer and centrifuged again. The supernatant was discarded, and the final pellet containing cell membranes was resuspended in the appropriate binding buffer and stored at −80° C. until use.
Radioligand binding assays for the indicated transporters were performed as follows. To assess binding to the cloned hSERT, cells expressing hSERT were homogenized in 50 mM Tris-HCl with 120 mM NaCl and 5 mM KCl (pH 7.4). The binding reaction consisted of 10 μg cell membrane protein, […] [^3H]citalopram (citalopram, [N-methyl-^3H], specific activity 79.0 Ci/mmol; PerkinElmer, Boston, Mass.), and varying concentrations of either unlabeled citalopram or the test compound. A reaction to determine non-specific binding consisted of 10 μg cell membrane protein, 0.5 nM [^3H]citalopram, and 1 μM final concentration of unlabeled citalopram. The reactions were incubated at 22° C. for 60 minutes. Following incubation, the reactions were terminated by rapid filtration through separate GF/B filter strips pretreated with 0.2% polyethylenimine in a 48-well Brandel cell harvester. The cell membrane-containing filter strips were then rinsed five times with ice-cold 0.9% NaCl. After rinsing, individual filters were cut from the strip and placed in a scintillation vial containing 6.5 mL of Redi-Safe (Beckman-Coulter, Fullerton, Calif.).
(§3) The program was modified to calculate the Hill coefficient (nH). Data are presented as geometric mean±S.E.M. of at least three independent experiments. One-component models and two-component models were compared using the root mean square error of each fit and the F test.

[2] = molecular target: T2, human norepinephrine transporter (hNET) (Homo sapiens, UniProt P23975); test: Radioligand binding to cloned hNET, [3H]nisoxetine, HEK-293 cell membranes
T2 construct: expressed in transfected cells; host or cells: HEK-293, stably transfected
Procedure: as §1, §2
To assess binding to the cloned hNET, cells expressing hNET were homogenized in 50 mM Tris-HCl with 300 mM NaCl and 5 mM KCl (pH 7.4). The binding reaction consisted of 5 μg cell membrane protein, 0.5 nM [^3H]nisoxetine (nisoxetine HCl, [N-methyl-^3H], specific activity 82.0 Ci/mmol; Amersham, Arlington Hts., Ill.), and varying concentrations of either unlabeled nisoxetine or the test compound. A reaction to determine non-specific binding consisted of 5 μg cell membrane protein, 0.5 nM [^3H]nisoxetine, and 1 μM final concentration of unlabeled nisoxetine. The reactions were incubated at 22° C. for 60 minutes. Following incubation, the reactions were terminated by rapid filtration through separate GF/B filter strips pretreated with 0.2% polyethylenimine in a 48-well Brandel cell harvester. The cell membrane-containing filter strips were then rinsed five times with ice-cold 0.9% NaCl. After rinsing, individual filters were cut from the strip and placed in a scintillation vial containing 6.5 mL of Redi-Safe (Beckman-Coulter, Fullerton, Calif.).
as §3

[3] = molecular target: T3, human dopamine transporter (hDAT) (Homo sapiens, UniProt Q01959); test: Radioligand binding to cloned hDAT, [3H]WIN35428, HEK-293 cell membranes
T3 construct: expressed in transfected cells; host or cells: HEK-293, stably transfected
T3 sequence (Q01959 whole entry): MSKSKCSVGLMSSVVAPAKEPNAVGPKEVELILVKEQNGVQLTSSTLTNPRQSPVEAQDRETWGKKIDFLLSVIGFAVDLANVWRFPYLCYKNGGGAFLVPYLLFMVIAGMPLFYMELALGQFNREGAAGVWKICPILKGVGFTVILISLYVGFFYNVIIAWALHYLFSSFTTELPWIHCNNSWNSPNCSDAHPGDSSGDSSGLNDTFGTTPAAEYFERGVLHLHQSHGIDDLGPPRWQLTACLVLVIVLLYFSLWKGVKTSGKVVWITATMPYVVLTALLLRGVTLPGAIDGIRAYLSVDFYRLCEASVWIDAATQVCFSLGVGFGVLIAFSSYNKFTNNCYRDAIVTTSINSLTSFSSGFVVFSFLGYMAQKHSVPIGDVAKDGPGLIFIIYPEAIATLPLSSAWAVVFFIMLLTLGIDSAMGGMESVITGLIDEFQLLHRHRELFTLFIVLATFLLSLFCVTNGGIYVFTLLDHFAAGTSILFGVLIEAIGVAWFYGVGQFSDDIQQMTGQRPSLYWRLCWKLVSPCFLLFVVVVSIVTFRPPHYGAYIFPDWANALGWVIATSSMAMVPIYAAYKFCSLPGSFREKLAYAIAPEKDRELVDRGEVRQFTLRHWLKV
Procedure: as §1, §2
To assess binding to the cloned hDAT, cells expressing hDAT were homogenized in 50 mM Tris-HCl with 120 mM NaCl (pH 7.4). The binding reaction contained 15 μg cell membrane protein, 1 nM [^3H]WIN35428 (WIN35428, [N-methyl-^3H], specific activity 85.9 Ci/mmol; PerkinElmer, Boston, Mass.), and varying concentrations of either unlabeled WIN35428 or the test compound. A reaction to determine non-specific binding contained 15 μg cell membrane protein, 1 nM [^3H]WIN35428, and 10 μM final concentration of unlabeled WIN35428. The reactions were incubated at 22° C. for 1 hour. Following incubation, the reactions were terminated by rapid filtration through separate GF/B filter strips pretreated with 0.2% polyethylenimine in a 48-well Brandel cell harvester. The cell membrane-containing filter strips were then rinsed five times with ice-cold 0.9% NaCl. After rinsing, individual filters were cut from the strip and placed in a scintillation vial containing 6.5 mL of Redi-Safe (Beckman-Coulter, Fullerton, Calif.).
as §3

hSERT, hNET, hDAT = test: Human transporter binding: rank order and range of potency over the three transporters; conditions: for Potency (rank-order of potency of binding; S = hSERT, N = hNET, D = hDAT): from KD values; for Potency Range (difference between most potent and least potent binding): ratio of KD over hSERT, hNET, hDAT
Text: as §3

CYP2D6 = molecular target: T4, CYP2D6 (Homo sapiens, UniProt P10635); test: CYP2D6 inhibition, CYP2D6/AMMC kit (BD Biosciences), fluorescent substrate; format: in vitro ADME; conditions: recombinant human P450, AMMC substrate; read-out: Mean CYP2D6 (IC50)
T4 construct: purchased BD Biosciences 459200
T4 sequence (P10635 whole entry): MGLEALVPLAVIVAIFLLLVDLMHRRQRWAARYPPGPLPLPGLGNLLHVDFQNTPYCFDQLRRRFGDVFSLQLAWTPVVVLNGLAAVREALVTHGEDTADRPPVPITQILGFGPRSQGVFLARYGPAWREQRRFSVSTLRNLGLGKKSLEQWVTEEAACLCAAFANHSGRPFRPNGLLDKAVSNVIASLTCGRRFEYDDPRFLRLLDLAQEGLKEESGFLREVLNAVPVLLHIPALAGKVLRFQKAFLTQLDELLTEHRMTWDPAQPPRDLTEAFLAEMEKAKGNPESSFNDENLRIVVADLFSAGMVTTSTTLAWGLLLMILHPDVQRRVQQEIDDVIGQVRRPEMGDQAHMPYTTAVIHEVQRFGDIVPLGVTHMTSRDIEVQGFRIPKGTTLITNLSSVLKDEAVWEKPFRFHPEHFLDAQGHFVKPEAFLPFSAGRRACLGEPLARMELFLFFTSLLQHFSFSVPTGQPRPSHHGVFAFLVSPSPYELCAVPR
Text: This kit includes the use of a fluorescent P450 substrate (AMMC or 3-[2-(N,N-diethyl-N-methylamino)ethyl]-7-methoxy-4-methylcoumarin) and recombinant human P450.

hERG = hERG (Homo sapiens, UniProt Q12809); test: hERG assay: block of rubidium ion (Rb+) efflux from cells expressing hERG
Chain of hERG (Q12809 whole entry): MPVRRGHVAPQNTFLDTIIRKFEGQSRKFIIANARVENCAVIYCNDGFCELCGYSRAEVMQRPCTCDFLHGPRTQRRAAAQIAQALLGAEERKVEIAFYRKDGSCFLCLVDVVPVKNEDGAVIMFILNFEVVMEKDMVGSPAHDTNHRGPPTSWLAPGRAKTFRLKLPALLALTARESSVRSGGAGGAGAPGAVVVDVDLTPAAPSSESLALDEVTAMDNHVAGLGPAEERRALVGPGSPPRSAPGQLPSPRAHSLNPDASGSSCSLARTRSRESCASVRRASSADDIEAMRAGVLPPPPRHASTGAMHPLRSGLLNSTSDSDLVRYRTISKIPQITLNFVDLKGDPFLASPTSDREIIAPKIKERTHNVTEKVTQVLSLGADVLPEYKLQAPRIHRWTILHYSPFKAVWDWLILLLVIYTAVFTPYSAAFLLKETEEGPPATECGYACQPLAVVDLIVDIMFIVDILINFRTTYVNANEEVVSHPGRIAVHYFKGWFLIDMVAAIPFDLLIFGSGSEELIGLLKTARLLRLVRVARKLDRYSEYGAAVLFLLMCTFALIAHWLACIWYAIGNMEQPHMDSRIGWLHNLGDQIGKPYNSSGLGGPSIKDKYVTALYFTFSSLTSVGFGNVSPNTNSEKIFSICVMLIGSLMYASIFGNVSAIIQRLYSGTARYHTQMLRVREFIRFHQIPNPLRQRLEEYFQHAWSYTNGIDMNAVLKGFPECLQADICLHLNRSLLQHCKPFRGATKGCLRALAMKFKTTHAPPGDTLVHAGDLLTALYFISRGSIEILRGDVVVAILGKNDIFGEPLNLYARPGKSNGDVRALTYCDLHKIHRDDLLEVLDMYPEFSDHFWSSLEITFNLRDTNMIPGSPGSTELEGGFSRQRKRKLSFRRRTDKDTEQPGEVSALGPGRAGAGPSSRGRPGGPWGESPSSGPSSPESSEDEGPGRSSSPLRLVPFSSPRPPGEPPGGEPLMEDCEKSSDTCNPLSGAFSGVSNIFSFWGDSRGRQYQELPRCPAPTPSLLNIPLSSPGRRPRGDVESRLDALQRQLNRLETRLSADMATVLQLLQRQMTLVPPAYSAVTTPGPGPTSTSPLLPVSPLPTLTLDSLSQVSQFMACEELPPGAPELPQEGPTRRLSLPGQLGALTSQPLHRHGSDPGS
Procedure: Human “ether-a-go-go” (hERG) is an ion channel. Blockade of this channel can be predictive of causing cardiac arrhythmias in humans. hERG assays were performed to measure the ability of a compound to block rubidium ion (Rb^+) efflux from cells expressing hERG. Cells were pre-loaded with Rb^+, incubated with test compound, and then exposed to a buffer that opens the channel and allows the efflux of ions. Compounds as powder were dissolved in 100% DMSO to prepare 100 mM stock solutions. […] The stocks were stored at 23° C.
The range of doses for the test compounds was 30 nM through 100,000 nM.

Male Sprague-Dawley rats = test: Forced swim test in rats; format: in vivo, rat; conditions: 5 mg/kg IP
Procedure: When rats are placed in a cylinder of water from which they cannot escape, they will remain immobile in the water for the majority of the test.
Water was changed between trials, and the procedure involved a pretest and a 5-minute test separated by 24 hours. During the pretest, rats (adapted to the experimental room for no less than one hour) were placed in the cylinder for 15 minutes. Following this initial exposure, the rats were dried with towels and transferred to a “drying cage” situated under a warming lamp. […] The following day, rats were transferred to the experimental room and acclimated for at least one hour.
The rat was considered immobile when floating motionless or making only those movements necessary to keep its head above the surface of the water. Scores for each behavior (swimming or immobility) were expressed as total counts per 5-minute session. Statistical analysis was performed using ANOVA followed by the Tukey test for post-hoc comparisons.

[4] = system: human serotonin, norepinephrine and dopamine transporters; test: Transport into cells expressing human transporters: rank order of potency, comparison with rat; format: cell-based; conditions: from Ki values; S = 5-HT, N = NE, D = DA
[5] = molecular target: T5, rat serotonin transporter, synaptosomal preparations (Rattus norvegicus, UniProt P31652); test: Inhibition of [3H]5-HT reuptake in rat brain synaptosomes (frontal cortex); format: biochemical; conditions: Geometric Mean ± SEM; rat brain synaptosomes; read-out: Inhibitor Constant (Ki), 5HT transport
T5 construct: from tissue; host or cells: rat frontal cortex synaptosomes (male Sprague-Dawley)
T5 sequence (P31652 whole entry): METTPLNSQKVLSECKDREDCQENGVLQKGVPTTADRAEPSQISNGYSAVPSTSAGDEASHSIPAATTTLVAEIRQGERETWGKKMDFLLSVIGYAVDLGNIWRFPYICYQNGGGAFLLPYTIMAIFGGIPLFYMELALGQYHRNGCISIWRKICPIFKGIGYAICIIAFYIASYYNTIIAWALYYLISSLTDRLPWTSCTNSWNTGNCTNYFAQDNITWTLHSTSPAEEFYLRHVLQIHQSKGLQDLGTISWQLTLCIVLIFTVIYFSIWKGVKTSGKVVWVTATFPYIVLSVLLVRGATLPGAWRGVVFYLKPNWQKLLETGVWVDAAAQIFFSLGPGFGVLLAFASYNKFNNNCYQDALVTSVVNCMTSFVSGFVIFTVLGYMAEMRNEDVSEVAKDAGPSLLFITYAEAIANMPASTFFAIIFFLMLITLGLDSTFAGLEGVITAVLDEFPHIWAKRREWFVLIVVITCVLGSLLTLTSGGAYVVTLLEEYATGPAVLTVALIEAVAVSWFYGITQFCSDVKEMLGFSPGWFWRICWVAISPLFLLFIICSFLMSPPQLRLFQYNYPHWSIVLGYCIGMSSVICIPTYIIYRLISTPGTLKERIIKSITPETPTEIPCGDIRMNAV
Procedure: (§4) The dissected tissues were separately homogenized in 20 volumes (cortical) or 40 volumes (striatal) of ice-cold, oxygenated HEPES buffer 0.32 M sucrose containing 11 mM glucose (pH 7.4) in a glass Potter-Elvehjem homogenizer with Teflon® pestle (8 strokes, 900 rpm). The homogenates were centrifuged at 1,000×g for 10 minutes. The resulting supernatant was decanted and further centrifuged at 20,000×g for 20 minutes at 4° C. […] The synaptosomal protein concentration was determined by using the BCA assay (Pierce Biotechnology Inc, Rockford, Ill.), according to the manufacturer's instructions. Synaptosomal protein (1.0-2.5 mg) was suspended in 1 mL oxygenated incubation buffer as defined above. Test amine compound was pre-incubated with the synaptosomal preparation for 30 minutes at 37° C. in a shaking water bath (80 oscillations/minute).

[6] = molecular target: T6, rat norepinephrine transport, synaptosomal preparations (Rattus norvegicus, UniProt Q63380); test: Inhibition of [3H]NE reuptake in rat brain synaptosomes (occipital cortex); format: biochemical; conditions: Geometric Mean ± SEM; rat brain synaptosomes; read-out: Inhibitor Constant (Ki), NE transport
T6 construct: from tissue; host or cells: rat occipital cortex synaptosomes (male Sprague-Dawley)
T6 sequence (Q63380 1-617): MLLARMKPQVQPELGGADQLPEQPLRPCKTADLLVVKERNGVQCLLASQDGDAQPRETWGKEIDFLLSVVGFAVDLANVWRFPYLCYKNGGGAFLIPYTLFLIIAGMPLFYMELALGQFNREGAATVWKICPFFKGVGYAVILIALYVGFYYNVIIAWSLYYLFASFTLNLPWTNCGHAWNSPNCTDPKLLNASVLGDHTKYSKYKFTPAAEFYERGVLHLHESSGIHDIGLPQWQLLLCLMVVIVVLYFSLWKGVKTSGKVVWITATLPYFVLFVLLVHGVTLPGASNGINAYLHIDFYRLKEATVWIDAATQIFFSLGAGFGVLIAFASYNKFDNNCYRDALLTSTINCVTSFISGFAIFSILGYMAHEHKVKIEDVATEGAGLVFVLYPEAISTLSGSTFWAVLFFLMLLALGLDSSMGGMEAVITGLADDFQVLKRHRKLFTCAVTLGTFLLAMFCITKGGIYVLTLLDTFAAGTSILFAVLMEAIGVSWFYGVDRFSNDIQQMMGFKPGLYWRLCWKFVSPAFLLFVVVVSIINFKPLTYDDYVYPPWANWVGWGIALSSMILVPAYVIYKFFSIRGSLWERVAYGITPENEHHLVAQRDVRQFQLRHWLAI
Procedure: as §4

[7] = molecular target: T7, rat dopamine transporter, synaptosomal preparations (Rattus norvegicus, UniProt P23977); test: Inhibition of [3H]DA reuptake in rat brain synaptosomes (striatum); format: biochemical; conditions: Geometric Mean ± SEM; rat brain synaptosomes; read-out: Inhibitor Constant (Ki), DA transport
T7 construct: and striatal tissues for transport of dopamine; from tissue; host or cells: rat striatum synaptosomes (male Sprague-Dawley)
T7 sequence (P23977 whole entry): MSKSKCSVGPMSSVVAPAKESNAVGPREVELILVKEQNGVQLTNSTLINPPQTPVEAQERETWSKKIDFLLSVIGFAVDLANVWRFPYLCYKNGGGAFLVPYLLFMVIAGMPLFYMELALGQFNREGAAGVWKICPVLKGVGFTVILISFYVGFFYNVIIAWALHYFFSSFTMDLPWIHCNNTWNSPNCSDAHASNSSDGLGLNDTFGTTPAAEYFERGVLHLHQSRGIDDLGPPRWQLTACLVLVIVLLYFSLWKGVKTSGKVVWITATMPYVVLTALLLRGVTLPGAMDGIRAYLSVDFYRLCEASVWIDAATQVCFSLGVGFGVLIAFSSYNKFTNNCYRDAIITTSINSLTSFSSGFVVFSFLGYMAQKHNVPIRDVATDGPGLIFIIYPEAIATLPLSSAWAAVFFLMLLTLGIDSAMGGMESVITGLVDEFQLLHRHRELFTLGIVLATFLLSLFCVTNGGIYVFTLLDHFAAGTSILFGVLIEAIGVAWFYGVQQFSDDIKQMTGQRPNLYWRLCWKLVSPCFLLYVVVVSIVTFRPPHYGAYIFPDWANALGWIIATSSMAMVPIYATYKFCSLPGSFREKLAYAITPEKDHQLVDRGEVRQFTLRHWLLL
Procedure: as §4

[8] = system: rat 5-HT, NE and DA transport, synaptosomal preparations; test: Rat brain synaptosomal transport: rank order of potency; format: biochemical; conditions: from Ki values; S = 5HT, N = NE, D = DA
Procedure: as §4

[9] = molecular target: human norepinephrine transporter (Homo sapiens, UniProt P23975); test: Inhibition of [3H]NE transport into HEK-293 cells expressing the human transporter; conditions: read-out: Inhibitor Constant (Ki), NE transport; Geometric Mean ± SEM; HEK-293 whole cells
[10] = molecular target: human dopamine transporter (Homo sapiens, UniProt Q01959); test: Inhibition of [3H]DA transport into HEK-293 cells expressing the human transporter; conditions: read-out: Inhibitor Constant (Ki), DA transport; Geometric Mean ± SEM; HEK-293 whole cells
Chain of human dopamine transporter (Q01959 whole entry): as the sequence (Q01959 whole entry) above

[11] = molecular target: human serotonin transporter (Homo sapiens, UniProt P31645); test: Inhibition of [3H]5-HT transport into HEK-293 cells expressing the human transporter; conditions: read-out: Inhibitor Constant (Ki), 5-HT transport; Geometric Mean ± SEM; HEK-293 whole cells

CNC[C@H](c1ccc2ccccc2c1)[C@H](F)c1ccccc1 [MCJ001-F-SS, (2S,3S)-3-fluoro-N-methyl-2-(naphthalen-2-yl)-3-phenylpropan-1-amine]
Kd [1]: 0.82 ± 0.09 nM | Binding at hSERT compared to PRC200-SS ([1]; in words): greater binding at hSERT | Kd [2]: 1.3 ± 0.2 nM | Kd [3]: 23.5 ± 0.9 nM | Binding at hDAT compared to PRC200-SS ([3]; in words): Enhanced binding to hDAT | Potency (rank-order of potency of binding; S = hSERT, N = hNET, D = hDAT) (hSERT, hNET, hDAT): S > N > D | Potency Range (difference between most potent and least potent binding) (hSERT, hNET, hDAT): 29 fold | IC50 (CYP2D6): 60 nM | IC50 (hERG): 51800 nM | Blocking of hERG channel compared with PRC200-SS (hERG; in words): weaker than PRC200-SS at blocking this channel | Immobility in forced swim test vs saline (Male Sprague-Dawley rats): statistically (P<0.04) less immobility | Swimming in forced swim test vs saline (Male Sprague-Dawley rats): statistically (P<0.04) more swimming behavior | Antidepressant activity in forced swim test compared with imipramine (15 mg/kg IP) (Male Sprague-Dawley rats; FIG. 12A): antidepressant activity that was similar to that observed in rats treated with the positive control

CNCC(c1ccc2ccccc2c1)C(OC)c1ccccc1 (racemic) [MCJ001-OMe-(±)-SR, (2R,3S/2S,3R)-3-methoxy-N-methyl-2-(naphthalen-2-yl)-3-phenylpropan-1-amine]
Kd ([1]; Geometric Mean ± SEM, HCl salts, read-out: Equilibrium Dissociation Constant (KD) for Transporter Binding, hSERT (S)): 710 ± 50 nM | Kd ([3]; Geometric Mean ± SEM, HCl salts, read-out: Equilibrium Dissociation Constant (KD) for Transporter Binding, hDAT (D)): 600 ± 100 nM | Potency (rank-order of potency of binding; S = hSERT, N = hNET, D = hDAT) (hSERT, hNET, hDAT): N = D > S | Potency Range (difference between most potent and least potent binding) (hSERT, hNET, hDAT): 1.2 fold | Potency (rank order, transport into cells expressing human transporters) [4]: N > S > D | Ki [5]: 90 ± 36 nM | Ki [6]: 210 ± 30 nM | Ki [7]: 1030 ± 30 nM | Potency (rank order, transport into rat brain synaptosomal preparations) [8]: S > N > D | Ki [9]: 20 ± 1 nM | Ki [10]: 2400 nM | Ki [11]: 60 ± 7 nM
